# Test results: patent US20090306093A1, “METHOD FOR TREATING PATIENT HAVING BENIGN PROSTATE HYPERPLASIA” (KAOHSIUNG MEDICAL UNIVERSITY, priority 2008, published 2009)
# Columns and labels:
# a1A-adrenoceptor = target: T1, a1A-adrenoceptor (Rattus norvegicus, UniProt P43140); test: [3H]-prazosin competition binding, rat submaxillary gland membranes
# T1 construct: The submaxillary glands, spleen, and aorta of rats were separately homogenized; from tissue; host or cells: Wistar rat submaxillary gland membranes
# T1 sequence (P43140 1-466): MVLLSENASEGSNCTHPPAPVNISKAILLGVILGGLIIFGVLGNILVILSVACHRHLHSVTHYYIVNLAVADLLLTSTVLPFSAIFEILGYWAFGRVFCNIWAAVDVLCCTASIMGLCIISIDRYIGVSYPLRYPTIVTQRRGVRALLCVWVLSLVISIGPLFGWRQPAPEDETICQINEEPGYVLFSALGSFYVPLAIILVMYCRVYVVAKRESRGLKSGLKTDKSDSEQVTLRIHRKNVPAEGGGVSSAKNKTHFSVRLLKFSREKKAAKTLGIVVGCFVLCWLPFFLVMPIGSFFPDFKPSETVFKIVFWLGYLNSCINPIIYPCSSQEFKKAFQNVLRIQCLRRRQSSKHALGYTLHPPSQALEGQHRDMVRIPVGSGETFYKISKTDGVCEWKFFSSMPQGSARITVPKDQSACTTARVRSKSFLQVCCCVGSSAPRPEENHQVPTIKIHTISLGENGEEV
# Method: Wistar rats were obtained from National Laboratory Animal Breeding and Research Center (Taipei, Taiwan) and housed under a constant temperature and controlled illumination. The submaxillary glands, spleen, and aorta of rats were separately homogenized for 30 seconds with a Kinematica polytron in 20 volumes of ice-cold TE buffer (10 mM Tris HCl, 1 mM EDTA, 0.1 mM ascorbic acid, pH 7.4). The homogenate was filtered under pressure through muslin and the filtrate was centrifuged at 1,000 g for 10 minutes. The supernatant was centrifuged again at 10,000 g for 12 minutes at 4° C. The second supernatant was centrifuged at 30,000 g for 15 minutes at 4° C., and the final pellet was resuspended in the assay buffer (75 mM Tris HCl, 25 mM MgCl2, pH 7.4). Protein content was determined by Bradford's method.
# [^3H]-prazosin, KMUP-1 and membranes (200-300 μg) were incubated for 60 minutes at 25° C. with or without the addition of nonspecific binding agents, in a 75 mM Tris HCl buffer with 25 mM MgCl2, making a final volume of 500 μL. In this experiment, non-specific binding was defined by use of 10 μM phentolamine. In competitive-binding experiments, the competing agent was added directly to the incubation mixture. The incubation was terminated by adding 1 mL of ice cold assay buffer followed by immediate filtration through Whatman GF/C glass fiber filters supported on a 12-port filter manifold (Whatman Int. Ltd, Springfield Mill, Maidstone, UK). The filters were immediately washed 3 times with 5 mL of ice-cold assay buffer and dried in an oven at 60° C. for 2 hours before adding 5 mL of Triton-toluene based scintillation fluid. Membrane-bound radioligand trapped in the filters was counted in a Beckman LS6500 scintillation system (Fullerton, Calif.) with an efficiency of 45%. In each experiment, nonspecifically bound radioligand agents were measured by incubating membrane protein. Specific binding was then obtained by deducting this value from the total binding of radioligand agents for each sample.
# ROCK2 [1] = test: Western blot of phenylephrine-induced Rho kinase (ROCK2) expression in rat prostate; conditions: KMUP-1 10, 100 μM; Y-27632 10 μM; phenylephrine 10 μM
# Method: In order to examine the expression of Rho kinase in prostate, the prostate strips were pre-incubated with phenylephrine (10 μM) for 30 minutes. After a pre-treatment of phenylephrine, KMUP-1 (10-100 μM) and Y-27632 (10 μM) were further incubated for 30 minutes. After the incubation time, the prostate were extracted with protein extraction reagent (Pierce Biotechnology, Inc., Rockford, Ill., USA.). The PZ-HPV-7 cells were incubated with and without KMUP-1 (0.1-10 μM) at 30 minutes, 8 and 24 hours. They were then washed rapidly with ice-cold PBS, incubated with protein extraction reagent, and scraped from the plates. The prostate tissues and cells were sonicated three times for 10 second each time and centrifuged at 13,000 rpm at 4° C. for 30 minutes. The protein concentrations of supernatants were determined, using bovine serum albumin as the standard. Tissue and cell extract protein were then boiled at a ratio of 4:1 with sample buffer (100 mM Tris, pH 6.8, 20% glycerol, 4% SDS, and 0.2% bromphenol blue). 40-60 μg protein was used in this experiment. Electrophoresis was performed using 10 or 12% SDS-polyacrylamide gel electrophoresis and then transferred to nitrocellulose membranes (Millipore Corporation, Billerica, Mass.). […] The intensity of the bands was measured by densitometry.
# ROCK2 [2] = test: Quantitative RT-PCR of Rho kinase (ROCK2) mRNA in PZ-HPV-7 cells; type: cell-based, human
# Method: […] After the incubation, total RNA is isolated by processing the PZ-HPV-7 cells with TRI REAGEANT (Molecular Research Center, INC., Cincinnati, Ohio, USA) and 1-bromo-3chloropropane (BCP). Isopropanol was used to precipitate the isolated RNA; ethanol (75%) was used to wash the unwanted solution. The samples were then air-dried for 15 minutes at the room temperature. The pellet was re-suspended in 20 μL of DEPC-water (Ambion). After the RNA isolation, total RNA (2 μg) was used for the reverse transcription to cDNA by High-Capacity cDNA Reverse Transcription Kits (Applied Biosystems).
# Quantitation of Rho kinase and an internal reference gene (GAPDH) were done by fluorescence-based real-time detection (ABI PRISM 7900HT Sequence Detection System (Taqman); Applied Biosystems, Foster City, Calif.). The PCR reaction mixture consisted of 1× TaqMan Master Mix, 1× Probe/primers Assay Mix, 100 ng cDNA, and water containing a reference dye, to a final volume of 20 μL (all reagents from Applied Biosystems). Cycling conditions were 50° C. for 2 minutes, 95° C. for 10 minutes, followed by 40 cycles at 95° C. for 15 second and 60° C. for 1 minute. Gene expression values (relative mRNA levels) are expressed as ratios (differences between the Ct values) between the genes of interest and an internal reference gene (GAPDH) providing a normalization factor for the amount of RNA isolated from cells. This analysis was performed by 7900 HT SDS 2.2.1 software.
smiles,measurement,setting,value
"Cn1c(=O)c2c(ncn2CCN2CCN(c3ccccc3Cl)CC2)n(C)c1=O [KMUP-1, 7-[2-[4-(2-Chlorobenzene)piperazinyl]ethyl]-1,3-dimethyl xanthine]",Selective Ratio a1A/a1B,a1A-adrenoceptor,5
same,Selective Ratio a1A/a1D,a1A-adrenoceptor,1
same,Ki,"a1A-adrenoceptor; rat submaxillary glands, [3H]-prazosin, read-out: Receptor Affinity (pKi) a1A (converted)",20.4 nM
same,phenylephrine-induced Rho kinase expression,ROCK2 [1],protected against phenylephrine-induced Rho kinase expression
same,Rho kinase gene expression,"ROCK2 [2]; 1 μM, 24 hours",96.00±10.00 % of control
same,Rho kinase gene expression,"ROCK2 [2]; 1 μM, 48 hours",90.00±10.05 % of control
same,Rho kinase gene expression,"ROCK2 [2]; 10 μM, 24 hours",80.00±8.80 % of control
same,Rho kinase gene expression,"ROCK2 [2]; 10 μM, 48 hours",66.00±5.80 % of control
same,Rho kinase gene expression,"ROCK2 [2]; 100 μM, 24 hours",68.00±5.01 % of control
same,Rho kinase gene expression,"ROCK2 [2]; 100 μM, 48 hours",52.00±7.01 % of control
